In patent US20250206729A1, “DUAL RAF AND TUBULIN INHIBITORS AND METHODS OF USE THEREOF” (Deciphera Pharmaceuticals, LLC, priority 2023, published 2025):
Read-outs that look alike come from different tables or passages of the source.

Columns and labels:
[1] = molecular target: T1, C-Raf kinase (SEQ ID NO: 2) (Homo sapiens, UniProt P04049, Y340D/Y341D); test: Biochemical assay for C-Raf (coupled pyruvate kinase/lactate dehydrogenase)
T1 construct: C-Raf residues 306-end; Y340D, Y341D with N-; GST (N); purchased Sigma
T1 sequence (P04049 307-648 Y340D/Y341D): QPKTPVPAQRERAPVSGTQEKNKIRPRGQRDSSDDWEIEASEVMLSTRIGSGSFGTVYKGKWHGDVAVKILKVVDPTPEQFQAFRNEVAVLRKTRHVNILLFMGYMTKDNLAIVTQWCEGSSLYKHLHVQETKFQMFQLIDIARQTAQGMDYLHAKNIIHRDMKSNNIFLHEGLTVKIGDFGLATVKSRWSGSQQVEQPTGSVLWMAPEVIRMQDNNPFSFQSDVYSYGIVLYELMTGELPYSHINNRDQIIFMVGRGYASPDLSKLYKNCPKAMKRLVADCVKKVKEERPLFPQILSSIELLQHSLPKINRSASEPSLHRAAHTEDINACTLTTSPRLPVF

Pa16c cells = test: Pa16c cell proliferation assay; type: cell-based; settings: 67 to 72 h incubation, resazurin; read-out: Pa16c (inhibition of cell proliferation, IC50)
HPAF-II cells = test: HPAF-II cell proliferation assay; type: cell-based; settings: Homo sapiens
[2] = molecular target: T2, B-Raf kinase (SEQ ID NO: 1) (Homo sapiens, UniProt P15056); test: Biochemical assay for B-Raf (coupled pyruvate kinase/lactate dehydrogenase)
T2 construct: GST (N); purchased Sigma
T2 sequence (P15056 416-766): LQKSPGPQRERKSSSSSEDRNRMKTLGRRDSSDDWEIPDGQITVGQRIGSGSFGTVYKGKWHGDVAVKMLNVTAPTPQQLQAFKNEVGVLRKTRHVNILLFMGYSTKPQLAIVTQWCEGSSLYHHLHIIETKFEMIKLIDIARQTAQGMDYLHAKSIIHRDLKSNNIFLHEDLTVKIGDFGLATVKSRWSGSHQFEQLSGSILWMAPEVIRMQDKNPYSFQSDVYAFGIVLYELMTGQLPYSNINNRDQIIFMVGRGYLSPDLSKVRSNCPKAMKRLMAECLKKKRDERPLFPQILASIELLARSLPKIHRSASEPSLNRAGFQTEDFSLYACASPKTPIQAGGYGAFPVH

[3] = system: tubulin polymerization in HCT-116 cells; test: Cellular tubulin polymerization assay (HCT-116 cells); type: cell-based
Procedure: HCT-116 cells (catalog #CCL-247) are obtained from the American Type Culture Collect (ATCC, Manassas, VA). Briefly, cells are grown in McCoy's 5A supplemented with 10% characterized fetal bovine serum (Invitrogen, Carlsbad, CA) and 1% Penicillin/Streptomycin/L-Glutamine at 37° C., 5% CO2, and 95% humidity. Cells are expanded until reaching 70-95% confluency at which point they are sub-cultured or harvested for assay use. 450000 cells are added per well in 1500 μL complete growth medium in a tissue culture treated, 12-well plate. Plates are incubated for 18 to 24 h at 37° C., 5% CO2, and 95% humidity. At the end of the incubation, 2000 μL of base culture media is added to each well, followed by a serial dilution of compound. Plates are incubated for an additional 1 h at 37° C., 5% CO2, and 95% humidity. Lysates are generated by the addition of 100 μL Lysis and Microtubule Stabilization Buffer 1 (LMSO1, Cytoskeleton Inc, Denver, CO) supplemented with GTP (BST06, Cytoskeleton Inc), ATP (BSA04, Cytoskeleton Inc), and Protease Inhibitor Cocktail Stock (PIC02, Cytoskeleton Inc). Cells are scraped off wells using a rubber cell scraper and collected in a clean 96-well plate. Lysates are centrifuged at 1000× g, 37° C. for 10 min and supernatant fraction is placed into an additional 96-well plate. The remaining pellet fraction is reconstituted in 100 μL LMS01 buffer and sonicated for 10 min. Pellet and Supernatant fractions are probed for α-tubulin via western blot analysis on the Jess System or equivalent (Bio-techne, Minneapolis, MN). Data is analyzed using Prism software (Graphpad, San Diego, CA) to calculate IC50 values.

HCT-116 cells = test: HCT-116 cell proliferation assay; type: cell-based; settings: Homo sapiens
MiaPaca-2 cells = test: MiaPaca-2 cell proliferation assay; type: cell-based; settings: Homo sapiens, MIA PaCa-2
Porcine Brain Tubulin = Porcine Brain Tubulin (Sus scrofa, UniProt P02550+P02554); test: Biochemical tubulin polymerization assay; settings: maximum velocity of polymerization, FIG. 1; read-out: IC50 of inhibition of tubulin polymerization, biochemical tubulin assay
Sequence of Porcine Brain Tubulin (P02554 whole entry): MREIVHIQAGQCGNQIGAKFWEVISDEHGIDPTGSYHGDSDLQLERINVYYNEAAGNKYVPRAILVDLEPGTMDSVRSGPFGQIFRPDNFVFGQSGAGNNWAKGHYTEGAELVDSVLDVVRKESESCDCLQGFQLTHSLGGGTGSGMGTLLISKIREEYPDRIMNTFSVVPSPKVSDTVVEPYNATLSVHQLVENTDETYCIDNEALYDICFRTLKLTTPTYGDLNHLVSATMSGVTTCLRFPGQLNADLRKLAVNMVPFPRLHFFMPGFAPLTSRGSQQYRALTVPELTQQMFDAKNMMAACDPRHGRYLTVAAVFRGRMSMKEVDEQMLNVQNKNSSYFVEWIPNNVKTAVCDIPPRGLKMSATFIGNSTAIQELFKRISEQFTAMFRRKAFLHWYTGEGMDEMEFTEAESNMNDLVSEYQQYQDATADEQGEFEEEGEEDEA
Sequence of Porcine Brain Tubulin (P02550 whole entry): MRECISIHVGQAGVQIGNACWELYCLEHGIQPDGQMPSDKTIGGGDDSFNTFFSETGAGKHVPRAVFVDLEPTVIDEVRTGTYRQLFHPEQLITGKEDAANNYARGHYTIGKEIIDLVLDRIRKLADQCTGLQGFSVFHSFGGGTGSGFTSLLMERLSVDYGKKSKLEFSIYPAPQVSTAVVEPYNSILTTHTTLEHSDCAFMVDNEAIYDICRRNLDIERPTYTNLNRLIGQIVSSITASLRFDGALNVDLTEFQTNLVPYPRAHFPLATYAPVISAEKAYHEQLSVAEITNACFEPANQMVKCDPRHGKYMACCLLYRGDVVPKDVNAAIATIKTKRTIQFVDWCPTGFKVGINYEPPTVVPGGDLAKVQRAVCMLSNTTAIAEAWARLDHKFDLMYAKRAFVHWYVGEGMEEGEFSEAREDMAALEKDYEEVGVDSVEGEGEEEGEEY

[4] = 1 mM ATP, read-out: CRAF (inhibition of biochemical activity, IC50)
[5] = HPAF-II, 115 to 120 h incubation, resazurin, read-out: HPAF-II (inhibition of cell proliferation, IC50)
[6] = Table 3, mutant KRAS pancreatic cancer cell line, anti-proliferative, read-out: HPAF-II
[7] = 1 mM ATP, read-out: BRAF (inhibition of biochemical activity, IC50)
[8] = Table 3, HCT-116 cells, read-out: Tubulin Cellular
[9] = HCT-116, 67 to 72 h incubation, resazurin, read-out: HCT-116 (inhibition of cell proliferation, IC50)
[10] = Table 3, mutant KRAS colorectal cancer cell line, anti-proliferative, read-out: HCT-116
[11] = 67-72 h incubation, resazurin, read-out: MiaPaca-2 (inhibition of cell proliferation, IC50)
[12] = Table 3, mutant KRAS pancreatic cancer cell line, anti-proliferative, read-out: MiaPaca-2

Row | IC50 [1, 4] [nM] | IC50 ([1]; Table 3, read-out: CRAF) [nM] | IC50 [2, 7] [nM] | IC50 ([2]; Table 3, read-out: BRAF) [nM] | IC50 [3, 8] [nM] | IC50 (HCT-116 cells; [9]) [nM] | IC50 (HCT-116 cells; [10]) [nM] | IC50 (MiaPaca-2 cells; [11]) [nM] | IC50 (MiaPaca-2 cells; [12]) [nM] | Structure (SMILES) | IC50 (Pa16c cells) [nM] | IC50 (HPAF-II cells; [5]) [nM] | IC50 (HPAF-II cells; [6]) [nM] | IC50 ([3]; ratio of pellet to supernatant vs DMSO control, HCT-116, FIG. 2, read-out: IC50 of inhibition of tubulin polymerization, cellular tubulin assay) [nM] | IC50 (Porcine Brain Tubulin) [nM]
1 | 1000 to 10000 | 1000 to 10000 | 1000 to 10000 | 1000 to 10000 | < 100 | 100 to 500 | 100 to 500 | < 100 | < 100 | Cc1ccc(NC(=O)c2cc(C(F)(F)F)cnn2)cc1-c1ccnc(N2CCOCC2)n1 [Example 29] | 100 to 500 | 100 to 500 | 100 to 500 | – | –
2 | < 100 | < 100 | < 100 | < 100 | < 100 | < 100 | < 100 | < 100 | < 100 | Cc1ccc(NC(=O)c2cc(C(F)(F)F)cnn2)cc1-c1cc(OCCO)nc(N2CCOCC2)c1 [Example 6] | < 100 | < 100 | < 100 | – | –
3 | 100 to 500 | 100 to 500 | 100 to 500 | 100 to 500 | 100 to 500 | < 100 | < 100 | < 100 | < 100 | Cc1ccc(NC(=O)c2cc(C(F)(F)F)cnn2)cc1-c1cc(N2CCOCC2)nc(OCCO)n1 [Example 44] | < 100 | < 100 | < 100 | – | –

The next lines start with the molecule.

Row | Structure (SMILES) | IC50 [1, 4] [nM] | IC50 ([1]; Table 3, read-out: CRAF) [nM] | IC50 [2, 7] [nM] | IC50 ([2]; Table 3, read-out: BRAF) [nM] | IC50 [3, 8] [nM] | IC50 (HCT-116 cells; [9]) [nM] | IC50 (HCT-116 cells; [10]) [nM] | IC50 (MiaPaca-2 cells; [11]) [nM] | IC50 (MiaPaca-2 cells; [12]) [nM] | IC50 (Pa16c cells) [nM] | IC50 (HPAF-II cells; [5]) [nM] | IC50 (HPAF-II cells; [6]) [nM] | IC50 ([3]; ratio of pellet to supernatant vs DMSO control, HCT-116, FIG. 2, read-out: IC50 of inhibition of tubulin polymerization, cellular tubulin assay) [nM] | IC50 (Porcine Brain Tubulin) [nM]
4 | CC(C)(C)c1[nH]cnc1/C=c1\[nH]c(=O)/c(=C/c2ccccc2)[nH]c1=O [plinabulin, reference compound] | – | – | – | – | – | – | – | – | – | – | – | – | 5 | 2700
5 | Cc1ccc(NC(=O)c2cc(C(C)C)cnn2)cc1-c1cc(N[C@H](C)CO)nc(N2CCOCC2)c1 [Example 14] | < 100 | < 100 | < 100 | < 100 | < 100 | 100 to 500 | 100 to 500 | 100 to 500 | 100 to 500 | 1000 to 10000 | 100 to 500 | 100 to 500 | – | –
6 | Cc1ccc(NC(=O)c2cc(C(C)(C)F)cnn2)cc1-c1cc(OCCO)nc(N2CCOCC2)c1 [Example 34] | < 100 | < 100 | < 100 | < 100 | 100 to 500 | < 100 | < 100 | < 100 | < 100 | < 100 | < 100 | < 100 | – | –
7 | Cc1ccc(NC(=O)c2cc(C3CC3)cnn2)cc1-c1cc(OCCO)nc(N2CCOCC2)c1 [Example 37] | < 100 | < 100 | < 100 | < 100 | < 100 | < 100 | < 100 | < 100 | < 100 | < 100 | < 100 | < 100 | – | –
8 | Cc1ccc(NC(=O)c2cc(C(F)(F)F)cnn2)cc1-c1nc(N[C@H](C)CO)cc(N2CCOCC2)n1 [Example 49] | 1000 to 10000 | 1000 to 10000 | 1000 to 10000 | 1000 to 10000 | 100 to 500 | 100 to 500 | 100 to 500 | 100 to 500 | 100 to 500 | 100 to 500 | 100 to 500 | 100 to 500 | – | –
